Measurements: patent US20210032257A1, “(E)-1-(4-(DIMETHYLAMINO)BUT-2-ENOYL)PYRROLIDIN-3-YL 4-((3-ISOPROPYL-5-METHYLPYRAZOLO[1,5-A]PYRIMIDIN-7-YL)AMINO)PIPERIDINE-1-CARBOXYLATE FOR INHIBITING CDK7” (Eli Lilly and Company, priority 2017, published 2021)

What was measured:
EMT6 xenograft = assay: Xenograft Tumor Model; assay type: in vivo, mice; conditions: EMT6, Breast; BALB/c; 20 mg/kg PO QDx28
Description: (§1) To evaluate in vivo efficacy of a test compound, multiple xenograft tumor models are utilized. Briefly, 5-10×10^6 tumor cells in a 1:1 MATRIGEL® mix (0.2 mL total volume) are injected subcutaneously into the female athymic nude mice (Envigo, Harlan laboratories) for a majority of xenograft tumor models. Alternate mice strains are utilized to establish MDAMB468 (NOD SCID Gamma, Jackson labs), CT26 and EMT6 (BALB/c, Envigo, Harlan Laboratories) xenografts. After allowing tumors to reach a desired size of ˜300-500 mm^3, animals are randomized into groups of 6-8 for efficacy studies. Test compound is administered via oral gavage (PO) at indicated doses and regimens. Tumor growth and body weight are monitored over time to evaluate efficacy and signs of toxicity.
(§2) Test compound is formulated in 5% N-methyl-2-pyrrolidone (NMP) in 1% hydroxyethylcellulose, 0.25% polysorbate 80, 0.05% antifoam in purified water (HEC) and administered by oral gavage (final volume 0.2 mL) at the doses indicated in Table 4. A test compound is formulated on a weekly basis and stored at 4° C. Vehicles are administered to the control groups according the schedules used above using a volume of 0.2 mL per dose. Mice are dosed via oral gavage and tumor samples are collected at termination and stored at −80° C.
(§3) Tumor size and body weight are recorded and analyzed bi-weekly. Blood is collected using DBS (dried blood spot) card 2 hours after dose and at termination. Tumors are collected at study termination, cut into 3 sections and either snap frozen for exposure and protein analysis, or placed in RNAlater® for RNA analysis. Tissue samples are frozen and stored at −80° C.
(§4) Delta T/C % is calculated when the endpoint tumor volume in a treated group is at or above baseline tumor volume. The formula is 100*(T−T0)/(C−C0). Here, T and C are mean endpoint tumor volumes in the treated or control group, respectively. TO and CO are mean baseline tumor volumes in those groups. *: Significant (p<0.05)

MDAMB468 xenograft = assay: Xenograft Tumor Model; assay type: in vivo, mice; conditions: MDAMB468, Breast, ARID1A, RB1; NOD SCID Gamma; 20 mg/kg PO QDx28
Description: as §1, §2, §3, §4

HCT116 xenograft = assay: Xenograft Tumor Model; assay type: in vivo, mice; conditions: HCT116, Colorectal, KMT2C; 25 mg/kg PO QDx21
Description: as §1, §2, §3, §4

CT26 xenograft = assay: Xenograft Tumor Model; assay type: in vivo, mice; conditions: CT26, Colorectal; BALB/c; 20 mg/kg PO QDx24
Description: as §1, §2, §3, §4

HCC1806 xenograft = assay: Xenograft Tumor Model; assay type: in vivo, mice; conditions: HCC1806, Breast, KMT2C; 20 mg/kg PO QDx28
Description: as §1, §2, §3, §4

A2780 xenograft = assay: Xenograft Tumor Model; assay type: in vivo, mice; conditions: A2780, Ovary, ARID1A; 20 mg/kg PO QDx35
Description: as §1, §2, §3, §4

MKN45 xenograft = assay: Xenograft Tumor Model; assay type: in vivo, mice; conditions: MKN45, Stomach, KMT2C; 20 mg/kg PO QDx35
Description: as §1, §2, §3, §4

COLO205 xenograft = assay: Xenograft Tumor Model; assay type: in vivo, mice; conditions: COLO205, Colorectal; 20 mg/kg PO QDx28
Description: as §1, §2, §3, §4

MDAMB231 xenograft = assay: Xenograft Tumor Model; assay type: in vivo, mice; conditions: MDAMB231, Breast; 20 mg/kg PO QDx35
Description: as §1, §2, §3, §4

MIAPACA2 xenograft = assay: Xenograft Tumor Model; assay type: in vivo, mice; conditions: MIAPACA2, Pancreatic, ARID1A; 20 mg/kg PO QDx35
Description: as §1, §2, §3, §4

H441 xenograft = assay: Xenograft Tumor Model; assay type: in vivo, mice; conditions: H441, Lung; 20 mg/kg PO QDx35
Description: as §1, §2, §3, §4

MCF7 = assay: Cell Proliferation Assay (CELL TITER GLO); assay type: cell-based; conditions: Homo sapiens, 168 h; MCF7, Breast Cancer, seven days
Description: (§5) Cell lines are plated at the density 5000 cells per well in 100 μL per well growth medium into a white 96-well cell culture plate. See Table 2 for cell line and culture medium information. Plates are incubated at 37° C. and 5% CO2. The following day, a serial dilution of the test compound is prepared by diluting the compound 1:3 in DMSO for 10 points. The DMSO plate is 1000× the final concentration. In addition to the CDK7 inhibitor, a DMSO alone column is included as a maximum growth control and 10 μM staurosporine final column is included as a maximum growth inhibition control. A 10× dilution plate is then prepared by adding 2 μL per well from the 1000×DMSO plate to 198 μL per well of OMEM (Life Technologies, Carlsbad, Calif., cat #31985-070). Cells are treated with indicated compound by adding 11 μL per well from the 10×OMEM plate to the cell plate containing 100 μL per well growth medium for a 1× final concentration. Plates are placed back into the incubator at 37° C. and 5% CO2. Seven days after compound addition, plates are removed from the incubator and allowed to equilibrate to RT. CELL TITER GLO® reagent is thawed at room temperature and then prepare by mixing one vial of assay buffer with one vial of substrate and swirl gently to mix. CELL TITER GLO® reagent is then added to the cell plate, 100 μL per well, and place on a Titer Plate Shaker at speed setting 2 for 15 minutes at room temperature. After 15 minute incubation on shaker, luminescence is read, 1 second per well, using a Wallac VICTOR2™. Nonlinear regression and sigmoidal dose-response curves are used to calculate the half maximal inhibitory concentration (IC50) with Graphpad Prism 6 software.

SNU-16 = assay: Cell Proliferation Assay (CELL TITER GLO); assay type: cell-based; conditions: Homo sapiens, 168 h; SNU-16, Gastric Cancer, seven days
Description: as §5

NCI-H460 = assay: Cell Proliferation Assay (CELL TITER GLO); assay type: cell-based; conditions: Homo sapiens, 168 h; NCI-H460, Lung Cancer, seven days
Description: as §5

HCC1806 = assay: Cell Proliferation Assay (CELL TITER GLO); assay type: cell-based; conditions: Homo sapiens, 168 h; HCC1806, Breast Cancer, seven days
Description: as §5

HCT116 = assay: Cell Proliferation Assay (CELL TITER GLO); assay type: cell-based; conditions: Homo sapiens, HCT-116, 168 h; HCT116, Colorectal Cancer, seven days
Description: as §5

NCI-H446 = assay: Cell Proliferation Assay (CELL TITER GLO); assay type: cell-based; conditions: Homo sapiens, 168 h; NCI-H446, Lung Cancer, seven days
Description: as §5

A2780 = assay: Cell Proliferation Assay (CELL TITER GLO); assay type: cell-based; conditions: Homo sapiens, 168 h; A2780, Ovarian Cancer, seven days
Description: as §5

## Cc1cc(NC2CCN(C(=O)O[C@H]3CCN(C(=O)/C=C/CN(C)C)C3)CC2)n2ncc(C(C)C)c2n1 [Example 1, [(3S)-1-[(E)-4-(dimethylamino)but-2-enoyl]pyrrolidin-3-yl] 4-[(3-isopropyl-5-methyl-pyrazolo[1,5-a]pyrimidin-7-yl)amino]piperidine-1-carboxylate]
EMT6 xenograft
  Avg. ΔT/C: 17%
MDAMB468 xenograft
  Avg. ΔT/C: −91%
HCT116 xenograft
  Avg. ΔT/C: −17%
CT26 xenograft
  Avg. ΔT/C: 52%
HCC1806 xenograft
  Avg. ΔT/C: −87%
A2780 xenograft
  Avg. ΔT/C: −41%
MKN45 xenograft
  Avg. ΔT/C: 57%
COLO205 xenograft
  Avg. ΔT/C: −4%
MDAMB231 xenograft
  Avg. ΔT/C: −25%
MIAPACA2 xenograft
  Avg. ΔT/C: 10%
H441 xenograft
  Avg. ΔT/C: 0%
MCF7
  IC50: 32 nM
SNU-16
  IC50: 23.1 nM
NCI-H460
  IC50: 47.9 nM
HCC1806
  IC50: 25.5 nM
HCT116
  IC50: 46 nM
NCI-H446
  IC50: 14.2 nM
A2780
  IC50: 26.5 nM
